Test results published in ChEMBL document CHEMBL5543125, “Discovery of 2,3-Dihydro[1,4]dioxino[2,3-g]benzofuran Derivatives as Protease Activated Receptor 4 (PAR4) Antagonists with Potent Antiplatelet Aggregation Activity and Low Bleeding Tendency” (J Med Chem, 2024).
Each block holds one compound with its values, some of them ahead of it. Active and inactive are the calls of the source. The rule behind the calls is not given here.

Assays:
Plasma [1] = test: Ex vivo antiplatelet aggregation activity in ICR mouse […] assessed as inhibition of ADP induced platelet aggregation at 6 mg/kg, po measured after 2 hrs by light transmission aggregometry; type: functional, organism-based
Plasma [2] = test: Ex vivo antiplatelet aggregation activity in ICR mouse […] assessed as inhibition of PAR4-activated peptide AYPGFK-NH2 induced platelet aggregation at 6 mg/kg, po measured after 2 hrs by light transmission aggregometry; type: functional, organism-based
[3] = Tmax in ICR mouse at 12 mg/kg, po measured upto 24 hrs by LC-MS/MS analysis; type: ADME, organism-based; conditions: in vivo
[4] = Terminal elimination half life in ICR mouse at 12 mg/kg, po measured upto 24 hrs by LC-MS/MS analysis; type: ADME, organism-based; conditions: in vivo, read-out: beta t1/2 (converted)
[5] = Metabolic stability in human liver microsomes assessed as half life at 1 uM preincubated for 1 hr followed by NADPH addition and measured upto 60 mins by LC-MS/MS analysis; type: ADME, Microsome; conditions: time < 120 min
Platelet [6] = test: Antagonist activity at P2Y1/P2Y12 in ICR mouse plasma assessed as inhibition of ADP induced platelet aggregation upto 1 uM preincubated for 5 mins followed by aggregation inducer addition and measured after 5 mins by light transmission aggregometry; type: cell-free; conditions: time 10.0 min
[7] = target: Voltage-gated inwardly rectifying potassium channel KCNH2 (Homo sapiens, UniProt Q12809); test: Inhibition of hERG expressed in HEK293 cells by whole cell patch clamp assay; type: toxicity, cell-based
Platelet [8] = test: Inhibition of platelet aggregation in human platelet rich plasma preincubated for 5 mins followed by aggregation inducer addition and measured after 5 mins by light transmission aggregometry; type: functional, cell-based
[9] = Clearance in ICR mouse at 2 mg/kg, iv measured upto 24 hrs by LC-MS/MS analysis; type: ADME, organism-based; conditions: in vivo
[10] = target: T1, Proteinase-activated receptor 4 (Mus musculus) (UniProt O88634); test: Antagonist activity at PAR4 in ICR mouse plasma assessed as inhibition of PAR4-activated peptide AYPGPK-NH2 induced platelet aggregation at 100 to 1000 nM preincubated for 5 mins followed by aggregation inducer addition and measured after 5 mins by light transmission aggregometry; type: cell-free; conditions: filed as antagonist, dose 100-1000 nM, time 10.0 min
T1 sequence (whole entry): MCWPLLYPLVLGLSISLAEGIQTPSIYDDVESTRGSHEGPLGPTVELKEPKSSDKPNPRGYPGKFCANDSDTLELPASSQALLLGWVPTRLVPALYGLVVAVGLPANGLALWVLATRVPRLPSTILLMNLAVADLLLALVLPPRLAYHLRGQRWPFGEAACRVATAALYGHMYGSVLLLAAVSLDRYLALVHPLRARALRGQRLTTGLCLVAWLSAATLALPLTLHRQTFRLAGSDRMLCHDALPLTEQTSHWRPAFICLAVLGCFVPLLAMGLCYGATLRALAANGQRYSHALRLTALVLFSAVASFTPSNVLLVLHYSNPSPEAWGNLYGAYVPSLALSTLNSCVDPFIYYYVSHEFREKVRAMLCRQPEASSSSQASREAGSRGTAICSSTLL

[11] = Oral bioavailability in ICR mouse at 12 mg/kg measured upto 24 hrs by LC-MS/MS analysis; type: ADME, organism-based; conditions: in vivo
[12] = target: T2, Platelet glycoprotein VI (Mus musculus) (UniProt P0C191); test: Antagonist activity at GPVI in ICR mouse plasma assessed as inhibition of collagen induced platelet aggregation upto 8 uM preincubated for 5 mins followed by aggregation inducer addition and measured after 5 mins by light transmission aggregometry; type: cell-free; conditions: time 10.0 min
T2 sequence (whole entry): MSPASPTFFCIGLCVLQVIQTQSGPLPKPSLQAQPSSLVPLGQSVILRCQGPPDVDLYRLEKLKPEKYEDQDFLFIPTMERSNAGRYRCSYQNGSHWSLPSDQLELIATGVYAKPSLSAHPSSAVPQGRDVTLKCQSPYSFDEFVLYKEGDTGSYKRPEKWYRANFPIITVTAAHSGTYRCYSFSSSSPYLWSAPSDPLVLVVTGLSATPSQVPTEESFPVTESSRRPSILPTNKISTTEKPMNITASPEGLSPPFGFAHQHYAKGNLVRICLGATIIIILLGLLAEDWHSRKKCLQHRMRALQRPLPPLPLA

[13] = Terminal elimination half life in ICR mouse at 2 mg/kg, iv measured upto 24 hrs by LC-MS/MS analysis; type: ADME, organism-based; conditions: in vivo, read-out: beta t1/2 (converted)
[14] = AUC (0 to t) in ICR mouse at 12 mg/kg, po measured upto 24 hrs by LC-MS/MS analysis; type: ADME, organism-based; conditions: in vivo
Plasma [15] = test: Ex vivo antiplatelet aggregation activity in po dosed ICR mouse […] assessed as inhibition of PAR4-activated peptide AYPGFK-NH2 induced platelet aggregation measured after 2 hrs by light transmission aggregometry; type: functional, organism-based; conditions: dose 1-12 mg/kg
Plasma [16] = test: Ex vivo antiplatelet aggregation activity in ICR mouse […] assessed as inhibition of PAR4-activated peptide AYPGFK-NH2 induced platelet aggregation at 6 to 12 mg/kg, po measured after 2 hrs by light transmission aggregometry relative to control; type: functional; conditions: dose 6-12 mg/kg
[17] = Toxicity in C57BL/6J mouse assessed as prolongation of bleeding time at 3 to 12 mg/kg, po administered via oral gavage and measured after 2 hrs; type: organism-based; conditions: in vivo, dose 3-12 mg/kg
Plasma [18] = test: Ex vivo antiplatelet aggregation activity in po dosed ICR mouse […] assessed as inhibition of ADP induced platelet aggregation measured after 2 hrs by light transmission aggregometry; type: functional, organism-based; conditions: dose 1-12 mg/kg
Plasma [19] = test: Anticoagulation activity in ICR mouse platelet poor plasma assessed as elongation of prothrombin time upto 20 uM incubated for 3 mins; type: functional, cell-free
Plasma [20] = test: Anticoagulation activity in ICR mouse platelet poor plasma assessed as elongation of aPTT upto 20 uM incubated for 3 mins; type: functional, cell-free
[21] = Cmax in ICR mouse at 12 mg/kg, po measured upto 24 hrs by LC-MS/MS analysis; type: ADME, organism-based; conditions: in vivo
[22] = target: T2, Platelet glycoprotein VI (Mus musculus); test: Antagonist activity at GPVI in ICR mouse plasma assessed as inhibition of collagen induced platelet aggregation upto 1 uM preincubated for 5 mins followed by aggregation inducer addition and measured after 5 mins by light transmission aggregometry; type: cell-free; conditions: time 10.0 min
Platelet [23] = test: Antiplatelet aggregation activity in ICR mouse plasma assessed as inhibition of thrombin induced platelet aggregation upto 1 uM preincubated for 5 mins followed by aggregation inducer addition and measured after 5 mins by light transmission aggregometry; type: functional, cell-based; conditions: time 10.0 min
Platelet [24] = test: Inhibition of platelet aggregation in human platelet rich plasma at 20 uM preincubated for 5 mins followed by aggregation inducer addition and measured after 5 mins by light transmission aggregometry relative to control; type: functional; conditions: 10 min
Plasma [25] = test: Ex vivo antiplatelet aggregation activity in ICR mouse […] assessed as inhibition of ADP induced platelet aggregation at 6 to 12 mg/kg, po measured after 2 hrs by light transmission aggregometry relative to control; type: functional; conditions: dose 6-12 mg/kg
[26] = AUC (0 to t) in ICR mouse at 2 mg/kg, iv measured upto 24 hrs by LC-MS/MS analysis; type: ADME, organism-based; conditions: in vivo
[27] = target: T3, Thromboxane A2 receptor (Mus musculus) (UniProt P30987); test: Antagonist activity at thromboxane A2 receptor in ICR mouse plasma assessed as inhibition of U46619 induced platelet aggregation upto 8 uM preincubated for 5 mins followed by aggregation inducer addition and measured after 5 mins by light transmission aggregometry; type: functional, cell-free; conditions: time 10.0 min
T3 sequence (whole entry): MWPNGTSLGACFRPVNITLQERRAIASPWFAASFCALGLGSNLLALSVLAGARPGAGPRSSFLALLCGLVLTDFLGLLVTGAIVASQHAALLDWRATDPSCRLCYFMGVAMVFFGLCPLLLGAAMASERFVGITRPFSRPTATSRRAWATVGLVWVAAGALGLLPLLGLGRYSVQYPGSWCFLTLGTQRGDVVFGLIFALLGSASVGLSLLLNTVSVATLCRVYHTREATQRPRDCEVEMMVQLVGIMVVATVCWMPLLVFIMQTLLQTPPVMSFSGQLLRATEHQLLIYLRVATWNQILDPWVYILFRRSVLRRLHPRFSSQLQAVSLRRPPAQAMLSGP

[28] = target: T3, Thromboxane A2 receptor (Mus musculus); test: Antagonist activity at thromboxane A2 receptor in ICR mouse plasma assessed as inhibition of U46619 induced platelet aggregation upto 1 uM preincubated for 5 mins followed by aggregation inducer addition and measured after 5 mins by light transmission aggregometry; type: functional, cell-free; conditions: time 10.0 min
Platelet [29] = test: Antagonist activity at P2Y1/P2Y12 in ICR mouse plasma assessed as inhibition of ADP induced platelet aggregation upto 8 uM preincubated for 5 mins followed by aggregation inducer addition and measured after 5 mins by light transmission aggregometry; type: cell-free; conditions: time 10.0 min
Platelet [30] = test: Antiplatelet aggregation activity in ICR mouse plasma assessed as inhibition of thrombin induced platelet aggregation upto 8 uM preincubated for 5 mins followed by aggregation inducer addition and measured after 5 mins by light transmission aggregometry; type: functional, cell-based; conditions: time 10.0 min

Voltage-gated inwardly rectifying potassium channel KCNH2, sequence (Q12809 whole entry): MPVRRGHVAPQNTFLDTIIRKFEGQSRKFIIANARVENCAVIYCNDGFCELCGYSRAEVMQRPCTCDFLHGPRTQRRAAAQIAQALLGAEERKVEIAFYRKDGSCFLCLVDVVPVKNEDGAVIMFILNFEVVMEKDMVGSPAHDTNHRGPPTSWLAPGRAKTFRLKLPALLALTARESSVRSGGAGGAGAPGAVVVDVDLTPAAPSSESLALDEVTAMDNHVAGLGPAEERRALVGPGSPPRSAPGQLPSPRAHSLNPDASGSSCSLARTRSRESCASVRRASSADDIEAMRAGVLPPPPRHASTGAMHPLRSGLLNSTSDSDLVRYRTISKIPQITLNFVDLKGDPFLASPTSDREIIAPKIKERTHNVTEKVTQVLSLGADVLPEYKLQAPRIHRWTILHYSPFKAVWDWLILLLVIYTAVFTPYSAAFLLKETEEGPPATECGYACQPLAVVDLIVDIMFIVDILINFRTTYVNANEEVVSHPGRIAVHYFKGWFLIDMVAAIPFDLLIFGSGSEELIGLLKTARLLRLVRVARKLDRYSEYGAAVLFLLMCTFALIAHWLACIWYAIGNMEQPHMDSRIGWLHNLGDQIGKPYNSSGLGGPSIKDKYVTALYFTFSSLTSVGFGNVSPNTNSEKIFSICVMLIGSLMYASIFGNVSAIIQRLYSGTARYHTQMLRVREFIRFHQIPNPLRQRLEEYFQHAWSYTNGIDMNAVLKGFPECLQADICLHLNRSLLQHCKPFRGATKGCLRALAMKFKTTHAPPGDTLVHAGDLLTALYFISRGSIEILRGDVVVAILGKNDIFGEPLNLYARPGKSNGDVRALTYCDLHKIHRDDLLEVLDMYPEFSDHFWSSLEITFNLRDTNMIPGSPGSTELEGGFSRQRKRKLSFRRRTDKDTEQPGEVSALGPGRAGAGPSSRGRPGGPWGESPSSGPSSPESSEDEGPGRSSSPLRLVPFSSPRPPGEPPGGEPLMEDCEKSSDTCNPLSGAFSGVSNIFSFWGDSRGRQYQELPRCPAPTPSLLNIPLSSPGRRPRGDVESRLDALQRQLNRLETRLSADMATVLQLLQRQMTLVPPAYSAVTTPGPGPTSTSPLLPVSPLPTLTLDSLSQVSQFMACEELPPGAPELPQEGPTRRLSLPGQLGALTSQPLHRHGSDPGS

SMILES: COc1nn2cc(-c3cc4ccccc4o3)nc2s1
- Activity (Plasma [1]): inactive
- Activity (Plasma [2]): inactive

- Tmax [3]: 2 h
- half-life [4]: 29.5 h
- half-life at 1 µM [5]: 0.708 h
- Activity (Platelet [6]): inactive
- IC50 (Platelet [8]): 14.2 nM
- clearance [9]: 3 mL/min/kg
- Activity [10]: Active
- bioavailability [11]: 9.61%
- Activity [12]: inactive
- half-life [13]: 38.3 h
- AUC(0-t) at 24 h [14]: 3040 ng·h/mL
- Cmax [21]: 204 ng/mL
- Activity [22]: inactive
- AUC(0-t) at 24 h [26]: 5390 ng·h/mL
- Activity [27]: inactive
- Activity [28]: inactive
- Activity (Platelet [29]): inactive
SMILES: COc1nn2cc(-c3cc4ccc5c(c4o3)OCC(COc3ccc(F)cc3)O5)nc2s1 (stereo not given)
- IC50 [7]: > 30000 nM
- Activity (Plasma [15]): Dose-Dependent Effect
- inhibition (INH) (Plasma [16]): >90%
- Activity [17]: Non-Toxic
- Activity (Plasma [18]): Dose-Dependent Effect
- Activity (Plasma [19]): inactive
- Activity (Plasma [20]): inactive
- Activity (Platelet [23]): inactive
- inhibition at 20 µM (Platelet [24]): 87.2%
- inhibition (INH) (Plasma [25]): >90%
- Activity (Platelet [30]): inactive
